pIC50: −log10 of the molar value.
Molecular target: D(2) dopamine receptor (Rattus norvegicus, UniProt P61169)
Assay: Binding affinity against the Dopamine receptor D2 in rat striatum by using [3H]spiperone radioligand
Assay type: tissue-based

Chain of D(2) dopamine receptor (P61169 whole entry): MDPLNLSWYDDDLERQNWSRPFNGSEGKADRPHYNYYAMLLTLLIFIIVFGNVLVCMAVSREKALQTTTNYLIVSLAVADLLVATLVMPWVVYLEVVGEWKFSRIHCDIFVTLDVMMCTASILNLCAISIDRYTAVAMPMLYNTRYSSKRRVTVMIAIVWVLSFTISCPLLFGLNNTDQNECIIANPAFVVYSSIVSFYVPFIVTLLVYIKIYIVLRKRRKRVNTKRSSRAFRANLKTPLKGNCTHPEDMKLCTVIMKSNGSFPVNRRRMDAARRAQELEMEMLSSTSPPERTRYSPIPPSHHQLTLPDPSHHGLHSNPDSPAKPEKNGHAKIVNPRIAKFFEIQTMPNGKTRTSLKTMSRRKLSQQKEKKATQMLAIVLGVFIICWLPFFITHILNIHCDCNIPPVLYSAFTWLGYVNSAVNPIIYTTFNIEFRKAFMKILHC

SMILES: OC(CCCN1CCN(c2ncc(F)cn2)CC1)c1ccc(F)cc1 (stereo unspecified) [BMY-14802]
- pIC50: 5.31
